For experiment [1], the target named is Glutamate receptor ionotropic, kainate 1 (Homo sapiens, UniProt P39086).
Description: Inhibition of [3H]-KA binding to iontropic glutamate receptor 5
The nature of experiment [2]: Inhibition of [3H]KA binding to human iontropic glutamate receptors 6 and KA-2.
Experiment [3] can be described thus: Inhibition of [3H]KA binding to human iontropic glutamate receptors 5 and 6.
Experiment [4] is described as follows: Inhibition of [3H]KA binding to human iontropic glutamate receptors 5 and KA-2.
Experiment [5] deals with Glutamate receptor ionotropic, kainate 2 (Homo sapiens, UniProt Q13002). Description: Inhibition of [3H]KA binding to iontropic glutamate receptor 6.
Glutamate receptor ionotropic, kainate 2, sequence (Q13002 whole entry): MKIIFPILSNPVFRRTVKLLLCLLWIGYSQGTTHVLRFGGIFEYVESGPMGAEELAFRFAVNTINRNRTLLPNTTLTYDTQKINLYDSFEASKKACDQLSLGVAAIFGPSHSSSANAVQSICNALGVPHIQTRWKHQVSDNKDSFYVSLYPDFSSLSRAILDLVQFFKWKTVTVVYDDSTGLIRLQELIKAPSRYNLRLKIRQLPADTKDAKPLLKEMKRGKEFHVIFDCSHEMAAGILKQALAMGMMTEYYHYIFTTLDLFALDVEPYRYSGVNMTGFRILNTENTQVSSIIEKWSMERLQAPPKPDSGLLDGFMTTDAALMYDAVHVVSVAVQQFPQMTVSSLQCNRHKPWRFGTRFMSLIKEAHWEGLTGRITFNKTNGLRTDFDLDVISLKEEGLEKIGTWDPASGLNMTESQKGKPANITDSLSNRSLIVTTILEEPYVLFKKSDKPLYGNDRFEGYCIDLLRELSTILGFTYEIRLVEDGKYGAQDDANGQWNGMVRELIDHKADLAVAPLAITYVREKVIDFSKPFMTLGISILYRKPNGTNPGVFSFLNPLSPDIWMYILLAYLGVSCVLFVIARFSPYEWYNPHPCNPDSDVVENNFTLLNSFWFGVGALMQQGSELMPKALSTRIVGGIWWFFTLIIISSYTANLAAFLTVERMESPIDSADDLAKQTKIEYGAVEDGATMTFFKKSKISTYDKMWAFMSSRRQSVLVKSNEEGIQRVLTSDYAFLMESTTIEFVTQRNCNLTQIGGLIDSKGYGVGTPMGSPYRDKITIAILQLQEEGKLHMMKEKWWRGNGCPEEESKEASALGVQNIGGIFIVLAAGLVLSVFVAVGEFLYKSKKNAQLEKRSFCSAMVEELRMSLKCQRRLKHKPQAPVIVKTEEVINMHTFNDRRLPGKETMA
The next experiment concerns the target Glutamate receptor 2 (Homo sapiens, UniProt P42262). Description: biochemical.

The structures appear in SMILES notation. Bounds are passed on as bounds.

Glutamate receptor ionotropic, kainate 1, sequence (P39086 whole entry): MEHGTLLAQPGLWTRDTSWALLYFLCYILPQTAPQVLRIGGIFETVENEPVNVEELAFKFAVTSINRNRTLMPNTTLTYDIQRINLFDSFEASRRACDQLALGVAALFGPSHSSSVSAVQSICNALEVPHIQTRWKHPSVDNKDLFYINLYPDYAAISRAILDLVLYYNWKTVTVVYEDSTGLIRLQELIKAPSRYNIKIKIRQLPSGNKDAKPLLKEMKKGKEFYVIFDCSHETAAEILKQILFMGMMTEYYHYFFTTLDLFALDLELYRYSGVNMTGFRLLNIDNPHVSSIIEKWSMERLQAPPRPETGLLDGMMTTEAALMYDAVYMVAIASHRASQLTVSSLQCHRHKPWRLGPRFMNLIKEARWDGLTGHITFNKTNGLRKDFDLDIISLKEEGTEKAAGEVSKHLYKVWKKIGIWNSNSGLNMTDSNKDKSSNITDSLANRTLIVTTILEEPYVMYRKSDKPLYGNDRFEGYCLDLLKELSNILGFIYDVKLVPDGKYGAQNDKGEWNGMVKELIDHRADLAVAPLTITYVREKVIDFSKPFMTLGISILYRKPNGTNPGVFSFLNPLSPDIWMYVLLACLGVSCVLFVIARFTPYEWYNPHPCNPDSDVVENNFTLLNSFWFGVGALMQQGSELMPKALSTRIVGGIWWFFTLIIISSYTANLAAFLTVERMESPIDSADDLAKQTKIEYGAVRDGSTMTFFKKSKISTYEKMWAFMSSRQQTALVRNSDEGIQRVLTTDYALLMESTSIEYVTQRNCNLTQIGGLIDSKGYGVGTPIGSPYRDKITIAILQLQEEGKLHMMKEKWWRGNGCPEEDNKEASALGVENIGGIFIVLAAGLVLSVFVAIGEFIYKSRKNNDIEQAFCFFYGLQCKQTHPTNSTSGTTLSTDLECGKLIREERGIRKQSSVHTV
Glutamate receptor 2, sequence (P42262 whole entry): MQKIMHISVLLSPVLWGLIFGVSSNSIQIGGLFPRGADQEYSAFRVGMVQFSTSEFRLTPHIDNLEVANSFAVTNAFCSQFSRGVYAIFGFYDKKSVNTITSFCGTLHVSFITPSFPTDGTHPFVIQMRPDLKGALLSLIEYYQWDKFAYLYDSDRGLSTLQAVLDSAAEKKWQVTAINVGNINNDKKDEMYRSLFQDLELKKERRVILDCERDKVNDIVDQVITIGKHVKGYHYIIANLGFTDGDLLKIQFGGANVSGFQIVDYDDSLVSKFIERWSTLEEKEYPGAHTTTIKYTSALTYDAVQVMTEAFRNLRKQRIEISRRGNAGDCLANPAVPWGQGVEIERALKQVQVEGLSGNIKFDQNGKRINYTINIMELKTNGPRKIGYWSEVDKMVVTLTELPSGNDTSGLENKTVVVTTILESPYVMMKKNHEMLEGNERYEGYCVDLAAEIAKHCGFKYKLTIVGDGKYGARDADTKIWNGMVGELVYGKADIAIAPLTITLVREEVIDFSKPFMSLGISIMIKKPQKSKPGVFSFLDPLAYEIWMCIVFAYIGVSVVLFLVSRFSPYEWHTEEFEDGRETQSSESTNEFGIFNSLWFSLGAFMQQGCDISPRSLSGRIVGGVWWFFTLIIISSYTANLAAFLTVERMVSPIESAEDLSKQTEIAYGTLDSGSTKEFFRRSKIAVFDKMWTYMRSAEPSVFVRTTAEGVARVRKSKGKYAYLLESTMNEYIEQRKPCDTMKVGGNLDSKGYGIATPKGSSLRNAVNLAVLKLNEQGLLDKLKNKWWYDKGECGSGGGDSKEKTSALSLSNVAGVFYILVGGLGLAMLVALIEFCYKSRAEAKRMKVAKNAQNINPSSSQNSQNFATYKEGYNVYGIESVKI
Description for Glutamate receptor 2: Inhibition of [3H]-AMPA binding to human GluR2 receptors expressed in HEK 293 cells

For `CCC(CC)COC(=O)[C@@H]1C[C@H]2C[C@@H](Nc3ccccc3-c3nn[nH]n3)CC[C@H]2CN1`, the Ki in experiment [1] is 31.8 µM; in experiment [2], above 100 µM; in experiment [3], 13.7 µM; in experiment [4], above 100 µM; in experiment [5], above 100 µM; on Glutamate receptor 2 it was above 100 µM.
Take `CC(C)COC(=O)[C@@H]1C[C@H]2C[C@@H](Oc3ccccc3-c3nn[nH]n3)CC[C@H]2CN1`: the Ki in experiment [1] is 7.37 µM; in experiment [2], above 100 µM; in experiment [3], 5.98 µM; in experiment [4], 60.9 µM; in experiment [5], above 100 µM; at Glutamate receptor 2 it was above 100 µM.
As to `O=C(O)[C@@H]1C[C@H]2C[C@@H](Oc3ccccc3-c3nn[nH]n3)CC[C@H]2CN1`, the Ki was 1.69 µM in experiment [1]; above 100 µM in experiment [2]; 1 µM in experiment [3]; 7.89 µM in experiment [4]; above 100 µM in experiment [5]; 8.26 µM at Glutamate receptor 2.
Take `O=C(O)[C@@H]1C[C@H]2C[C@@H](Nc3ccccc3-c3nn[nH]n3)CC[C@H]2CN1`: the Ki in experiment [1] is 1.55 µM; in experiment [2] it was above 100 µM; in experiment [3], 1.37 µM; in experiment [4], 9.86 µM; in experiment [5], above 100 µM; at Glutamate receptor 2 it was 5.51 µM.
Consider `O=C(O)c1ccc(C[C@H]2CC[C@H]3CN[C@H](C(=O)O)C[C@H]3C2)cc1`, for which the Ki is above 100 µM in experiment [2]; 10.2 µM in experiment [3]; above 100 µM in experiment [4]; above 100 µM in experiment [5]; above 100 µM at Glutamate receptor 2.
For the compound `NS(=O)(=O)c1cccc2c1c([N+](=O)[O-])cc1nc(O)c(O)nc12` [NBQX], the values for the Ki in experiment [2], in experiment [3] and in experiment [4] were 0.6 µM, 6.12 µM and 26.6 µM, respectively.
`O=C(O)[C@@H]1C[C@H]2C[C@@H](CCc3nn[nH]n3)CC[C@H]2CN1` [TEZAMPANEL ANHYDROUS]: the Ki is 4.16 µM in experiment [1]; above 100 µM in experiment [2]; 2.1 µM in experiment [3]; 16.2 µM in experiment [4]; above 100 µM in experiment [5].

In general, Ki refers to a dissociation constant, usually derived from enzyme kinetics or from competition with a known ligand.

(Values after ChEMBL document CHEMBL1139549, “Two prodrugs of potent and selective GluR5 kainate receptor antagonists actives in three animal models of pain” (J Med Chem, 2005).)
